Key:
HepG2 = assay: Cytotoxicity against human HepG2 cells; type: cell-based
[1] = Unbound intrinsic clearance in mouse liver microsomes at 1 uM measured up to 4 hrs by LC-MS analysis; type: ADME, Microsome
[2] = Half life in Swiss mouse at […], po measured up to 24 hrs by LC-MS analysis; type: ADME, organism-based; settings: in vivo, dose 2.6 mg/kg
[3] = Cmax in Swiss mouse at […], po measured up to 24 hrs by LC-MS analysis; type: ADME, organism-based; set-up: route oral, dose 2.6 mg/kg, time <=24; settings: in vivo
[4] = Oral bioavailability in Swiss mouse at […] measured up to 24 hrs by LC-MS analysis; type: ADME, organism-based; settings: in vivo, dose 2.6 mg/kg
[5] = Half life in Swiss mouse at 24 mg/kg, po measured up to 24 hrs by LC-MS analysis; type: ADME, organism-based; settings: in vivo
[6] = Oral bioavailability in Swiss mouse at 24 mg/kg measured up to 24 hrs by LC-MS analysis; type: ADME, organism-based; settings: in vivo
[7] = Apparent half life in Sprague-Dawley rat at 17 mg/kg, po measured up to 24 hrs; type: ADME, organism-based; settings: in vivo, read-out: t1/2(app) (converted)
[8] = Cmax in Sprague-Dawley rat at 17 mg/kg, po measured up to 24 hrs; type: ADME, organism-based; set-up: route oral, dose 17 mg/kg, time <=24; settings: in vivo
Plasmodium falciparum [9] = assay: Antiplasmodial activity against asexual blood stage Plasmodium falciparum D10 expressing yeast DHODH infected in human erythrocytes assessed as parasite killing in presence of proguanil; type: functional, organism-based
Plasmodium falciparum [10] = assay: Antiplasmodial activity against Plasmodium falciparum 3D7 Uganda infected in human erythrocytes assessed as parasite killing using albumax media measured after 72 hrs by SYBR Green assay; type: functional, organism-based; settings: 3D7, 72 h
Plasmodium falciparum [11] = system: Plasmodium falciparum
[12] = rat, plasma
[13] = rat, in vivo, po, 10 mg/kg, 24 h
[14] = rat, in vivo, po, 10 mg/kg, 24 h; remark: listed apart in the source

Cc1c(C2(c3ccc(C(F)(F)F)nc3)CC2)c[nH]c1C(=O)NC(C)c1nc[nH]n1 (stereo in doubt; form 1)
Activity (HepG2): Non-Toxic | CL free [1]: 17 µL/min/mg | half-life at 24 h [2]: 3.4 h | Cmax at 24 h [3]: 2.6 µM | bioavailability at 24 h [4]: 74% | t1/2 [5]: 4.5 h | F [6]: 70% | half-life [7]: 3.7 h | Cmax [8]: 14 µM | EC50 (Plasmodium falciparum [9]): > 10000 nM | EC50 (Plasmodium falciparum [10]): 7.5 nM | EC50 (Plasmodium falciparum [11]): 170 nM | PPB [12]: 94.3% | t1/2(app) [13]: 5.9 h | AUC [14]: 47 µM·h

— ChEMBL document CHEMBL4811258, “Potent Antimalarials with Development Potential Identified by Structure-Guided Computational Optimization of a Pyrrole-Based Dihydroorotate Dehydrogenase Inhibitor Series” (J Med Chem, 2021)
